From ChEMBL document CHEMBL1201862, “PubChem BioAssay data set” (2004)
Activity calls are given as the source filed them. Rule as the data show it: actives have a measured IC50 and inactives only a lower limit.

Molecular target: Envelope glycoprotein gp160 (Human immunodeficiency virus 1, UniProt Q6QLK5)
Experiment: inhibitors of HIV fusion peptide binding, primary screen, biochemical, uHTS, fluorescence dequenching (AID 1986)

Envelope glycoprotein gp160, sequence (Q6QLK5 whole entry, the tested form may be a part): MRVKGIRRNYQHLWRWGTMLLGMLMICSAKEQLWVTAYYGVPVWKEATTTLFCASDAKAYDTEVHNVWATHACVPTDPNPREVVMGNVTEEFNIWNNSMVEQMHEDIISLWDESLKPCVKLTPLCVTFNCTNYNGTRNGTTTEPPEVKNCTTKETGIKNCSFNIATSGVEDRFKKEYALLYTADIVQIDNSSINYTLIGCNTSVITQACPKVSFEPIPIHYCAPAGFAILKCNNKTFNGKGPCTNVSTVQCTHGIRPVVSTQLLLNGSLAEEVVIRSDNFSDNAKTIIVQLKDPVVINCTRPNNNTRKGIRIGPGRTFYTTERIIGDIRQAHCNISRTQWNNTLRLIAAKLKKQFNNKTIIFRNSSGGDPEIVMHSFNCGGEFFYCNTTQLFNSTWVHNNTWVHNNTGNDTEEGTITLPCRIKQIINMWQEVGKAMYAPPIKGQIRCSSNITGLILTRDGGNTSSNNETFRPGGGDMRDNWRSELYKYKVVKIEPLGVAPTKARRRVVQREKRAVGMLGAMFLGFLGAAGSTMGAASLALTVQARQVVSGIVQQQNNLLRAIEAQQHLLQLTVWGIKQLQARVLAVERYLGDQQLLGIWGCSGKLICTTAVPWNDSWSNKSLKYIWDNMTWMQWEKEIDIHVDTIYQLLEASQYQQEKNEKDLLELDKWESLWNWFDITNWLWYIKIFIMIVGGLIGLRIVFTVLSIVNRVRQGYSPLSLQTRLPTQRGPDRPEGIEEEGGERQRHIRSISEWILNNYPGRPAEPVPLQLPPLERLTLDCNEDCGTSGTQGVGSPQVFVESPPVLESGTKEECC

## Cc1ccccc1C(=O)Nc1cccc(C(=O)N/N=C/c2cc(Cl)cc([N+](=O)[O-])c2O)c1
  IC50: 31.3 µM (active)
